Results reported in US9351982B2, “Krill oil and reacted astaxanthin composition and associated method” (U.S. Nutraceuticals, LLC, priority 2009, dated 2016).

What was measured:
[1] = eight weeks of supplementation at 6 mg per day; cited from earlier work
[2] = cited from earlier work
[3] = tested on: C-Reactive Protein (C-RP); conditions: cited from earlier work
[4] = Stability of carotenoids blended with krill oil, UV analysis; type: physicochemical
From the text: Testing has determined that astaxanthin added to krill oil results in an unstable product with respect to recoverable astaxanthin by HPLC analysis. A chemical reaction most likely takes place between krill oil and at least astaxanthin in such mixtures. […] Had UV alone been used to determine product stability the decrease in recoverable astaxanthin over time would not have been observed. The test results, tables and charts of FIGS. 2-6 show the decrease in recoverable astaxanthin over time.
FIG. 2 is a chart showing data of astaxanthin at 13 days post formulation reacting with krill oil, but essentially neither lutein nor zeaxanthin. Astaxanthin is a keto-alcohol while lutein and zeaxanthin are alcohols and this can possibly make some difference. It should also be understood that the krill oil and “reacted” carotenoids, such as astaxanthin, and possibly zeaxanthin and lutein, lose their ability to be recovered over time from the mixture but can still be quantitated by ultraviolet (UV) analysis. For example, the chromophores of the carotenoids are not destroyed when the reaction takes place over time and can be used to develop a number of products useful for cardiovascular applications, joint health care applications, eye care and other diseases.
Referring now to the chart in FIG. 2, there are shown various samples and explanation. […]

[5] = cited from earlier work; remark: listed apart in the source
lipid peroxidation = conditions: relative to alpha-tocopherol; in vitro and in vivo studies; cited from earlier work
[6] = tested on: LDL cholesterol oxidation; conditions: cited from earlier work
lens epithelial cells = conditions: in vitro, at umol/L concentrations; cited from earlier work
[7] = tested on: pro-oxidant activity of Vioxx; conditions: in vitro; cited from earlier work

UV quantification of the amount of astaxanthin added to blended product [4]: ~100%
Compound: CC1=C(/C=C/C(C)=C/C=C/C(C)=C/C=C/C=C(C)/C=C/C=C(C)/C=C/C2=C(C)C(=O)[C@@H](O)CC2(C)C)C(C)(C)C[C@H](O)C1=O [astaxanthin]
negative effect in healthy adults [1]: no negative effect
potency in quenching singlet oxygen, times more potent than alpha-tocopherol ([2]; relative to alpha-tocopherol): 550 times
potency in quenching singlet oxygen, times more potent than beta-carotene ([2]; relative to beta-carotene): 11 times
potency in quenching singlet oxygen, times more potent than lutein ([2]; relative to lutein): 27.5 times
decrease in C-reactive protein scores ([3]; 4 mg for eight weeks): 21%
drop in serum C-RP levels ([3]; human subjects with high risk levels of C-RP, three months of treatment): 43%
potency in scavenging oxygen free radicals, times more potent than alpha-tocopherol ([5]; relative to alpha-tocopherol): 14 times
potency in scavenging oxygen free radicals, times more potent than ascorbic acid (Vitamin C) ([5]; relative to ascorbic acid): 65 times
potency in scavenging oxygen free radicals, times more potent than beta-carotene ([5]; relative to beta-carotene): 54 times
mean effective concentration which inhibits lipid peroxidation, times lower than that of alpha-tocopherol (lipid peroxidation): 500 times
protection of LDL cholesterol against induced in vitro oxidation ([6]; 3.6 mg per day for two weeks): protects LDL cholesterol against induced in vitro oxidation
reduction of LDL cholesterol oxidation ([6]; 4 mg per day for two weeks): 26%
suppression of UVB induced lipid per-oxidative mediated cell damage (lens epithelial cells): suppresses UVB induced lipid per-oxidative mediated cell damage
negation of pro-oxidant activity of Vioxx [7]: negate the pro-oxidant activity of Vioxx
